# Results published in patent US8431554B2, “Compound showing anti-inflammatory activity and antiviral activity, pharmaceutical compositions comprising the same, a process for obtaining the same and use of the same in the treatment of epidemic keratoconjunctivites and herpetic stromal keratis” (priority 2007, dated 2013).
# Legend:
# [1] = test system: strain KOS of HSV-1 (herpetic stromal keratitis); assay: Murine model of herpetic stromal keratitis (HK) induced by HSV-1; type: in vivo, mice; details: for incidence of HK upon completion of the period of disease / severity of lesions versus non-treated infected mice / incidence of HK (mice with signs of keratitis): treated days 1, 2, 3 p.i.; for incidence of HK upon completion of the period of disease / incidence of HK (mice with signs of keratitis): FIG. 1A; for severity of lesions versus non-treated infected mice: FIG. 1B
# Experimental: To determine if the treatment with compound I, after viral inoculation, affected the signs of HK, male mice of 6-8 weeks were anesthetized with ketamine/xylazine intraperitoneally and infected with the strain KOS of HSV-1 in the right corneas, previously scrapped with a needle. One group of animals was treated with buffered saline solution (PBS) (control of disease), while the rest were treated topically with a concentration of 40 μM of compound I three times a day. Also, groups of animals to control the antiviral activity of aciclovir (ACV) and anti-inflammatory activity of dexamethasone (DEX) were included, both drugs were commercially available.
# It was determined the incidence of the disease as well as the degree of severity of the lesions and evolution of HK was determined under a magnifying glass during 15 days. The diagnosis of the disease is based on the density of inflammatory infiltrates, lengthening of vessels with corneal invasion (neovascularization), and the presence of surface ulcers. Therefore, mice presenting swollen eyelids (blepharitis), neovascularization in more than 10% of the corneal surface, and corneal opacity with or without signs of necrosis, were considered sick of HK.
# The signs of ocular signs are gradually developed from the days 6-7 post-infection (p.i.) and the percentage of animals with HK and severity of the signs of the disease on days 3, 8, and 15 p.i were recorded (FIG. 1 y 2).
# To evaluate the antiviral activity of compound I, the compound was applied to a group of animals on days 1, 2 y 3 p.i., the days when multiplication of HSV-1 in the cornea occurs. Also, other groups of mice were treated with ACV—as a positive control of antiviral activity—and with DEX.
# To evaluate the anti-inflammatory activity of compound I, the compound was applied on days 6, 7 and 8 p.i., the time when HK manifests.
# [2] = test system: alpha-TNF production in macrophages J774; assay: Inhibition of alpha-TNF production in LPS-treated J774 macrophages; type: cell-based; details: different concentrations
# Text: Also, compound I has anti-inflammatory activity.
# Also, said compound II has anti-inflammatory activity.
# [3] = Cytotoxicity used for the adenovirus selectivity index; type: cell-based; details: human; IOBA-NHC
# Experimental: The antiviral selectivity index of Compound I for adenovirus is of 31.6. Said index was determined as a quotient between its viral activity (=63.2) and its cytotoxicity (=2).
# The antiviral selectivity index of Compound II for adenovirus is of […] Said index was determined as a quotient between its viral activity (=62.6) and its cytotoxicity (=4).
# adenovirus (ADV-5) = assay: Antiviral activity against adenovirus in infected IOBA-NHC cultures; type: cell-based; details: ADV-5, IOBA-NHC; for viral activity (used for selectivity index): multiplicity of infection of 1; for inhibition of adenovirus replication, in words: multiplicity of infection of 1, different concentrations
# [4] = test system: strain KOS of HSV-1 (herpetic stromal keratitis); assay: Murine model of herpetic stromal keratitis (HK) induced by HSV-1; type: in vivo, mice; details: treated days 6, 7, 8 p.i.; read on day 10 p.i.; FIG. 2A
# mice = assay: Toxicity assay in vivo; details: 40 μM, three times a day, three consecutive days
# Experimental: A toxicity assay in vivo was performed.
# strain KOS of HSV-1 = assay: Anti-HSV-1 activity, virus yield in infected IOBA-NHC cells titrated in Vero cells; type: cell-based; details: for EC50: Human alphaherpesvirus 1, Vero, HSV-1 KOS, m.i. 0.2, IOBA-NHC cells, 24 h, read-out: CE50 (Effective concentration 50); for IS, Selectivity index (CC50/CE50): anti-HSV-1, IOBA-NHC cells
# Experimental: To evaluate the antiviral activity of the compounds I and II, monolayers of cells IOBA-NHC grown in microplates of 24 wells were infected with the strain KOS of HSV-1 at a multiplicity of infection (m.i.) of 0.2, and treated with different concentrations of the compounds. Infected cells not treated were used as control of the infection. After incubating at 37° C. during 24 h, the free and cell associated virus was harvested and titrated in Vero cells by plating in semisolid medium. It was observed an inhibition of dose-dependent viral replication in the cells treated with the compounds I and II (Table 1).
# [5] = Cytotoxicity, colorimetric MTT assay in IOBA-NHC cells; type: cell-based; details: human, IOBA-NHC human conjunctival cells, confluent monolayers, 24 hours at 37° C., read-out: CC50 (Cytotoxyc concentration 50)
# Experimental: The activity anti-HSV-1 of the compounds I and II was evaluated in human conjunctive cells (IOBA-NHC). First, it was determined cytotoxicity of the same for cells IOBA-NHC using the colorimetric assay with MTT, based on the cleavage of the tetrazolium salt MTT (3-(4,5-dimethylthiazol-2-yl)-2,5-diphenyl tetrazolium […]) by the mitochondrial enzyme succinate dehydrogenase, to obtain a blue product, formazan (Denizot F, Lang R. Rapid colorimetric assay for cell growth and survival. Journal of Immunological Methods 1986; 89:271-77). The compounds dissolved in ethanol are added to confluent monolayers of cells IOBA-NHC grown in microplates of 96 wells, in concentrations of up to 600 μM, according to the compound. The ethanol concentration was lower than 1%. After 24 hours of incubation at 37° C., the absorbency of each well was read at 570 nm, with a reference wave length of 630 nm. It was determined the 50% cytotoxyc concentration (CC50) as the concentration of compound that reduces absorbency to 50% in relation with the control not treated (Table 1).
# [6] = treated days 6, 7, 8 p.i., FIG. 2A
SMILES,incidence of HK upon completion of the period of disease [1],severity of lesions versus non-treated infected mice [1],incidence of HK (mice with signs of keratitis) ([1]; read on day 8 p.i.),"HK signs, in words [1, 6]","severity of the signs of keratitis versus infection control ([1]; treated days 6, 7, 8 p.i., FIG. 2B)","mice with signs of the disease (HK) ([1]; treated days 6, 7, 8 p.i., read on day 8 p.i., FIG. 2A)","inhibition of alpha-TNF production, in words [2]",cytotoxicity [3],antiviral selectivity index for adenovirus (adenovirus (ADV-5)),viral activity (used for selectivity index) (adenovirus (ADV-5)),"inhibition of adenovirus replication, in words (adenovirus (ADV-5))",mice with signs of the disease (HK) [4],toxic effects in vivo (mice),EC50 (strain KOS of HSV-1),"IS, Selectivity index (CC50/CE50) (strain KOS of HSV-1)",CC50 at 24 h [5]
"CC[C@@H](C(C)C)[C@H](O)[C@@H](O)[C@@H](C)[C@H]1CC[C@H]2[C@@H]3CCC4=CC(=O)CC[C@]4(C)[C@H]3CC[C@]12C [Compound I, (22S,23S)-22,23-dihydroxystigmast-4-en-3-one]",40%,significant differences,30%,reduced significantly,lower,30%,inhibits production of alpha-TNF,2,31.6,63.2,inhibits virus replication according to the concentration of compound used,40%,absence of toxic effects,5.4 µM,13.2,71.2 µM
"CC[C@@H](C(C)C)[C@H](O)[C@@H](O)[C@@H](C)[C@H]1CC[C@H]2[C@@H]3CCC4=CC(=O)C=C[C@]4(C)[C@H]3CC[C@]12C [Compound II, (22S,23S)-22,23-dihydroxystigmasta-1,4-dien-3-one]",–,–,–,–,–,–,inhibits production of alpha-TNF,4,15.67,62.6,inhibits virus replication according to the concentration of compound used,–,–,17.9 µM,3.9,70.8 µM
"Nc1nc2c(ncn2COCCO)c(=O)[nH]1 [ACV, aciclovir, reference compound]",30%,significant differences,10%,had no effect on the improvement of disease signs,–,–,–,–,–,–,–,–,–,–,–,–
